Four molecules from PubChem BioAssay (NCI) can be followed below.

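The compound was tested at five concentrations on cells cultured in 96-well plates, with a 48-hour exposure period. At the TGI there is no net growth.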 Some results are limits rather than exact numbers.

In the first test the test system is MDA-MB-435. Put plainly: DTP human tumour cell line panel, 48 h.
As a reminder, the TGI is the concentration giving total growth inhibition. Consider `O=C1/C(=C\c2ccc(O)cc2)CCC/C1=C/c1ccc(Cl)c(Cl)c1`, for which the TGI amounted to 9.51 µM. In other words, the single-digit micromolar range.

The subject of a further test is 786-0 renal. Put plainly: DTP human tumour cell line panel, 48 h.
For the molecule `COc1cc2c(c(O)c1OC)-c1c(cc(OC)c(OC)c1OC)CC(C)C(C)C2` (stereo unspecified), the TGI is > 100 µM.

Turning to `O=C1c2ccccc2C(O)(O)C1(O)C1(O)C(=O)c2ccccc2C1(O)O` (stereo unspecified), the concentration for total growth inhibition (TGI) is > 100 µM.

As to `CC[C@]1(Cc2ccc(OC)c(OC)c2)C=[N+]([O-])O[C@H](OC2CCCC2(c2ccccc2)c2ccccc2)[C@@H]1OC(=O)c1ccccc1` (stereo partly specified), the total growth inhibition concentration (TGI) was > 100 µM.

In the case of `O=C1/C(=C\c2ccc(O)cc2)CCC/C1=C/c1ccc(Cl)c(Cl)c1`, the TGI was 6.05 µM.

In a further test the test system is SNB-19 CNS. Kind of test: DTP human tumour cell line panel, 48 h.
Consider `COc1cc2c(c(O)c1OC)-c1c(cc(OC)c(OC)c1OC)CC(C)C(C)C2` (stereo unspecified), for which the TGI is > 100 µM.

Take `O=C1c2ccccc2C(O)(O)C1(O)C1(O)C(=O)c2ccccc2C1(O)O` (stereo unspecified): the concentration for total growth inhibition (TGI) was > 100 µM.

Take `CC[C@]1(Cc2ccc(OC)c(OC)c2)C=[N+]([O-])O[C@H](OC2CCCC2(c2ccccc2)c2ccccc2)[C@@H]1OC(=O)c1ccccc1` (stereo partly specified): the concentration for total growth inhibition (TGI) is > 100 µM.

Turning to `O=C1/C(=C\c2ccc(O)cc2)CCC/C1=C/c1ccc(Cl)c(Cl)c1`, the TGI came out at 18.3 µM.

In another test the test system is UACC-257 melanoma. Put plainly: DTP human tumour cell line panel, 48 h.
On to `COc1cc2c(c(O)c1OC)-c1c(cc(OC)c(OC)c1OC)CC(C)C(C)C2` (stereo unspecified), for which the TGI was > 100 µM.

Regarding `CC[C@]1(Cc2ccc(OC)c(OC)c2)C=[N+]([O-])O[C@H](OC2CCCC2(c2ccccc2)c2ccccc2)[C@@H]1OC(=O)c1ccccc1` (stereo partly specified), the concentration for total growth inhibition (TGI) is > 66.5 µM.

On to `O=C1/C(=C\c2ccc(O)cc2)CCC/C1=C/c1ccc(Cl)c(Cl)c1`, for which the TGI came out at 15.7 µM.

In a further test the test system is EKVX NSCLC. Put plainly: DTP human tumour cell line panel, 48 h.
Take `COc1cc2c(c(O)c1OC)-c1c(cc(OC)c(OC)c1OC)CC(C)C(C)C2` (stereo unspecified): the total growth inhibition concentration (TGI) was > 100 µM.

Regarding `O=C1c2ccccc2C(O)(O)C1(O)C1(O)C(=O)c2ccccc2C1(O)O` (stereo unspecified), the total growth inhibition concentration (TGI) is > 100 µM.

As to `CC[C@]1(Cc2ccc(OC)c(OC)c2)C=[N+]([O-])O[C@H](OC2CCCC2(c2ccccc2)c2ccccc2)[C@@H]1OC(=O)c1ccccc1` (stereo partly specified), the total growth inhibition concentration (TGI) is > 23.8 µM.

The molecule `O=C1/C(=C\c2ccc(O)cc2)CCC/C1=C/c1ccc(Cl)c(Cl)c1` gave a total growth inhibition concentration (TGI) of 20 µM.

The next test concerns SK-MEL-2 melanoma. Kind of test: DTP human tumour cell line panel, 48 h.
For the molecule `COc1cc2c(c(O)c1OC)-c1c(cc(OC)c(OC)c1OC)CC(C)C(C)C2` (stereo unspecified), the TGI is > 100 µM.

As to `O=C1c2ccccc2C(O)(O)C1(O)C1(O)C(=O)c2ccccc2C1(O)O` (stereo unspecified), the TGI was > 100 µM.

With `CC[C@]1(Cc2ccc(OC)c(OC)c2)C=[N+]([O-])O[C@H](OC2CCCC2(c2ccccc2)c2ccccc2)[C@@H]1OC(=O)c1ccccc1` (stereo partly specified), the concentration for total growth inhibition (TGI) was determined as 37.5 µM.

As for `O=C1/C(=C\c2ccc(O)cc2)CCC/C1=C/c1ccc(Cl)c(Cl)c1`, the concentration for total growth inhibition (TGI) was 36.9 µM. This TGI and that of the molecule before are within 1.5-fold of each other.

The subject of another test is IGROV1 ovarian. Put plainly: DTP human tumour cell line panel, 48 h.
Take `COc1cc2c(c(O)c1OC)-c1c(cc(OC)c(OC)c1OC)CC(C)C(C)C2` (stereo unspecified): the total growth inhibition concentration (TGI) is > 100 µM.

On to `O=C1c2ccccc2C(O)(O)C1(O)C1(O)C(=O)c2ccccc2C1(O)O` (stereo unspecified), for which the TGI was > 100 µM.

On to `CC[C@]1(Cc2ccc(OC)c(OC)c2)C=[N+]([O-])O[C@H](OC2CCCC2(c2ccccc2)c2ccccc2)[C@@H]1OC(=O)c1ccccc1` (stereo partly specified), for which the TGI is > 100 µM.

`O=C1/C(=C\c2ccc(O)cc2)CCC/C1=C/c1ccc(Cl)c(Cl)c1` yielded a TGI of 1.17 µM.

The subject of the next test is HT29 colon. Kind of test: DTP human tumour cell line panel, 48 h.
As for `COc1cc2c(c(O)c1OC)-c1c(cc(OC)c(OC)c1OC)CC(C)C(C)C2` (stereo unspecified), the TGI is > 100 µM.

Take `O=C1c2ccccc2C(O)(O)C1(O)C1(O)C(=O)c2ccccc2C1(O)O` (stereo unspecified): the TGI is > 100 µM.

On to `CC[C@]1(Cc2ccc(OC)c(OC)c2)C=[N+]([O-])O[C@H](OC2CCCC2(c2ccccc2)c2ccccc2)[C@@H]1OC(=O)c1ccccc1` (stereo partly specified), for which the total growth inhibition concentration (TGI) is > 71.1 µM.

`O=C1/C(=C\c2ccc(O)cc2)CCC/C1=C/c1ccc(Cl)c(Cl)c1` came in with a TGI of 3.54 µM.

The next test deals with A549 NSCLC. Put plainly: DTP human tumour cell line panel, 48 h.
With `COc1cc2c(c(O)c1OC)-c1c(cc(OC)c(OC)c1OC)CC(C)C(C)C2` (stereo unspecified), the concentration for total growth inhibition (TGI) was > 100 µM.

As to `O=C1c2ccccc2C(O)(O)C1(O)C1(O)C(=O)c2ccccc2C1(O)O` (stereo unspecified), the TGI is > 100 µM.

`CC[C@]1(Cc2ccc(OC)c(OC)c2)C=[N+]([O-])O[C@H](OC2CCCC2(c2ccccc2)c2ccccc2)[C@@H]1OC(=O)c1ccccc1` (stereo partly specified): the TGI is > 100 µM.

Take `O=C1/C(=C\c2ccc(O)cc2)CCC/C1=C/c1ccc(Cl)c(Cl)c1`: the TGI is 15 µM.

The test system of another test is TK-10 renal. Kind of test: DTP human tumour cell line panel, 48 h.
As to `COc1cc2c(c(O)c1OC)-c1c(cc(OC)c(OC)c1OC)CC(C)C(C)C2` (stereo unspecified), the TGI was > 100 µM.

Turning to `O=C1c2ccccc2C(O)(O)C1(O)C1(O)C(=O)c2ccccc2C1(O)O` (stereo unspecified), the TGI came out at 58.1 µM.

Turning to `CC[C@]1(Cc2ccc(OC)c(OC)c2)C=[N+]([O-])O[C@H](OC2CCCC2(c2ccccc2)c2ccccc2)[C@@H]1OC(=O)c1ccccc1` (stereo partly specified), the TGI is > 33.4 µM.

`O=C1/C(=C\c2ccc(O)cc2)CCC/C1=C/c1ccc(Cl)c(Cl)c1` registered a concentration for total growth inhibition (TGI) of 10.5 µM.

Another test relates to UACC-62 melanoma. Kind of test: DTP human tumour cell line panel, 48 h.
Turning to `COc1cc2c(c(O)c1OC)-c1c(cc(OC)c(OC)c1OC)CC(C)C(C)C2` (stereo unspecified), the TGI was > 100 µM.

As to `O=C1c2ccccc2C(O)(O)C1(O)C1(O)C(=O)c2ccccc2C1(O)O` (stereo unspecified), the TGI is > 100 µM.

Regarding `CC[C@]1(Cc2ccc(OC)c(OC)c2)C=[N+]([O-])O[C@H](OC2CCCC2(c2ccccc2)c2ccccc2)[C@@H]1OC(=O)c1ccccc1` (stereo partly specified), the concentration for total growth inhibition (TGI) was > 38.6 µM.

`O=C1/C(=C\c2ccc(O)cc2)CCC/C1=C/c1ccc(Cl)c(Cl)c1`: the concentration for total growth inhibition (TGI) is 5.24 µM. In other words, the single-digit micromolar range.

For the next test, the system named is KM12 colon. Kind of test: DTP human tumour cell line panel, 48 h.
Regarding `COc1cc2c(c(O)c1OC)-c1c(cc(OC)c(OC)c1OC)CC(C)C(C)C2` (stereo unspecified), the TGI is > 100 µM.

For `O=C1c2ccccc2C(O)(O)C1(O)C1(O)C(=O)c2ccccc2C1(O)O` (stereo unspecified), the TGI is > 100 µM.

`CC[C@]1(Cc2ccc(OC)c(OC)c2)C=[N+]([O-])O[C@H](OC2CCCC2(c2ccccc2)c2ccccc2)[C@@H]1OC(=O)c1ccccc1` (stereo partly specified): the TGI stood at 22.9 µM. That is a double-digit micromolar value.

The molecule `O=C1/C(=C\c2ccc(O)cc2)CCC/C1=C/c1ccc(Cl)c(Cl)c1` yielded a TGI of 3.77 µM.

The test system of a further test is BT-549 breast. Put plainly: DTP human tumour cell line panel, 48 h.
In the case of `COc1cc2c(c(O)c1OC)-c1c(cc(OC)c(OC)c1OC)CC(C)C(C)C2` (stereo unspecified), the concentration for total growth inhibition (TGI) was > 100 µM.

On to `O=C1c2ccccc2C(O)(O)C1(O)C1(O)C(=O)c2ccccc2C1(O)O` (stereo unspecified), for which the TGI is > 100 µM.

`CC[C@]1(Cc2ccc(OC)c(OC)c2)C=[N+]([O-])O[C@H](OC2CCCC2(c2ccccc2)c2ccccc2)[C@@H]1OC(=O)c1ccccc1` (stereo partly specified): the concentration for total growth inhibition (TGI) was > 100 µM.

In turn, `O=C1/C(=C\c2ccc(O)cc2)CCC/C1=C/c1ccc(Cl)c(Cl)c1` gave a TGI of 7.49 µM.

The next test has as its system HCC-2998 colon. Kind of test: DTP human tumour cell line panel, 48 h.
On to `COc1cc2c(c(O)c1OC)-c1c(cc(OC)c(OC)c1OC)CC(C)C(C)C2` (stereo unspecified), for which the TGI was > 100 µM.

For the molecule `CC[C@]1(Cc2ccc(OC)c(OC)c2)C=[N+]([O-])O[C@H](OC2CCCC2(c2ccccc2)c2ccccc2)[C@@H]1OC(=O)c1ccccc1` (stereo partly specified), the concentration for total growth inhibition (TGI) was > 27.4 µM.

`O=C1/C(=C\c2ccc(O)cc2)CCC/C1=C/c1ccc(Cl)c(Cl)c1` displayed a concentration for total growth inhibition (TGI) of 5.94 µM.

For another test, the system named is NCI/ADR-RES ovarian. Kind of test: DTP human tumour cell line panel, 48 h.
Regarding `O=C1c2ccccc2C(O)(O)C1(O)C1(O)C(=O)c2ccccc2C1(O)O` (stereo unspecified), the total growth inhibition concentration (TGI) is > 100 µM.

Regarding `CC[C@]1(Cc2ccc(OC)c(OC)c2)C=[N+]([O-])O[C@H](OC2CCCC2(c2ccccc2)c2ccccc2)[C@@H]1OC(=O)c1ccccc1` (stereo partly specified), the TGI was > 62.7 µM.

On to `O=C1/C(=C\c2ccc(O)cc2)CCC/C1=C/c1ccc(Cl)c(Cl)c1`, for which the TGI came to 4.27 µM.

For another test, the system named is MALME-3M melanoma. Kind of test: DTP human tumour cell line panel, 48 h.
With `COc1cc2c(c(O)c1OC)-c1c(cc(OC)c(OC)c1OC)CC(C)C(C)C2` (stereo unspecified), the TGI was > 100 µM.

`O=C1c2ccccc2C(O)(O)C1(O)C1(O)C(=O)c2ccccc2C1(O)O` (stereo unspecified) had a concentration for total growth inhibition (TGI) of 54.3 µM. This counts as double-digit micromolar.
